≈ marks a conversion by molar mass, not a printed value.
What was measured:
Acinetobacter baumannii = test: Antibacterial activity against Acinetobacter baumannii assessed as inhibition of bacterial growth; type: functional
Enterococcus faecalis [1] = test: Antibacterial activity against Enterococcus faecalis MTCC 439 assessed as diameter of zone of inhibition at 500 ug/ml by agar disk diffusion method; type: functional; settings: read-out: DIZ
Bacillus subtilis [2] = test: Antibacterial activity against Bacillus subtilis MTCC 736 assessed as diameter of zone of inhibition at 500 ug/ml by agar disk diffusion method; type: functional; settings: read-out: DIZ
Salmonella typhi [3] = test: Antibacterial activity against Salmonella typhi assessed as diameter of zone of inhibition at 500 ug/ml by agar disk diffusion method; type: functional, Salmonella enterica subsp. enterica serovar Typhi; settings: Salmonella enterica, read-out: DIZ
Staphylococcus aureus [4] = test: Antibacterial activity against Staphylococcus aureus MTCC 902 assessed as diameter of zone of inhibition at 500 ug/ml by agar disk diffusion method; type: functional; settings: read-out: DIZ
Escherichia coli [5] = test: Antibacterial activity against Escherichia coli MTCC 443 assessed as diameter of zone of inhibition at 500 ug/ml by agar disk diffusion method; type: functional; settings: read-out: DIZ
Pseudomonas aeruginosa [6] = test: Antibacterial activity against Pseudomonas aeruginosa MTCC 2453 assessed as diameter of zone of inhibition at 500 ug/ml by agar disk diffusion method; type: functional; settings: read-out: DIZ
Escherichia coli [7] = test: Ratio of MBC for antibacterial activity against Escherichia coli MTCC 443 to MIC for bactericidal activity against Escherichia coli MTCC 443; type: functional
Salmonella typhi [8] = test: Bactericidal activity against Salmonella typhi assessed as inhibition of bacterial growth incubated overnight; type: functional, Salmonella enterica subsp. enterica serovar Typhi; settings: Salmonella enterica
Staphylococcus aureus [9] = test: Antibacterial activity against Staphylococcus aureus MTCC 902 assessed as inhibition of bacterial growth incubated overnight by serial dilution based spectrophotometer; type: functional
Staphylococcus aureus [10] = test: Bactericidal activity against Staphylococcus aureus MTCC 902 assessed as inhibition of bacterial growth incubated overnight; type: functional
Salmonella typhi [11] = test: Antibacterial activity against Salmonella typhi assessed as inhibition of bacterial growth incubated overnight by serial dilution based spectrophotometer; type: functional, Salmonella enterica subsp. enterica serovar Typhi; settings: Salmonella enterica
Salmonella typhi [12] = test: Ratio of MBC for antibacterial activity against Salmonella typhi to MIC for bactericidal activity against Salmonella typhi; type: functional, Salmonella enterica subsp. enterica serovar Typhi
Escherichia coli [13] = test: Bactericidal activity against Escherichia coli MTCC 443 assessed as inhibition of bacterial growth incubated overnight; type: functional
Escherichia coli [14] = test: Antibacterial activity against Escherichia coli MTCC 443 assessed as inhibition of bacterial growth incubated overnight by serial dilution based spectrophotometer; type: functional
Pseudomonas aeruginosa [15] = test: Antibacterial activity against Pseudomonas aeruginosa MTCC 2453 assessed as inhibition of bacterial growth incubated overnight by serial dilution based spectrophotometer; type: functional
Enterococcus faecalis [16] = test: Antibacterial activity against Enterococcus faecalis MTCC 439 assessed as inhibition of bacterial growth incubated overnight by serial dilution based spectrophotometer; type: functional
Bacillus subtilis [17] = test: Antibacterial activity against Bacillus subtilis MTCC 736 assessed as inhibition of bacterial growth incubated overnight by serial dilution based spectrophotometer; type: functional
Enterococcus faecalis [18] = test: Bactericidal activity against Enterococcus faecalis MTCC 439 assessed as inhibition of bacterial growth incubated overnight; type: functional
Enterococcus faecalis [19] = test: Ratio of MBC for antibacterial activity against Enterococcus faecalis MTCC 439 to MIC for bactericidal activity against Enterococcus faecalis MTCC 439; type: functional
Pseudomonas aeruginosa [20] = test: Bactericidal activity against Pseudomonas aeruginosa MTCC 2453 assessed as inhibition of bacterial growth incubated overnight; type: functional
Bacillus subtilis [21] = test: Bactericidal activity against Bacillus subtilis MTCC 736 assessed as inhibition of bacterial growth incubated overnight; type: functional
Staphylococcus aureus [22] = test: Ratio of MBC for antibacterial activity against Staphylococcus aureus MTCC 902 to MIC for bactericidal activity against Staphylococcus aureus MTCC 902; type: functional
Staphylococcus aureus [23] = test: Antibacterial activity against Staphylococcus aureus assessed as inhibition of bacterial growth; type: functional

Row | SMILES | zone of inhibition at 500 µg/mL (Enterococcus faecalis [1]) [mm] | zone of inhibition at 500 µg/mL (Bacillus subtilis [2]) [mm] | zone of inhibition at 500 µg/mL (Salmonella typhi [3]) [mm] | zone of inhibition at 500 µg/mL (Staphylococcus aureus [4]) [mm] | zone of inhibition at 500 µg/mL (Escherichia coli [5]) [mm] | zone of inhibition at 500 µg/mL (Pseudomonas aeruginosa [6]) [mm] | MIC (Staphylococcus aureus [9]) [µg/mL] | MBC (Staphylococcus aureus [10]) [µg/mL] | MIC (Salmonella typhi [11]) [µg/mL] | MBC (Escherichia coli [13]) [µg/mL] | MIC (Escherichia coli [14]) [µg/mL] | MIC (Pseudomonas aeruginosa [15]) [µg/mL] | MIC (Enterococcus faecalis [16]) [µg/mL] | MIC (Bacillus subtilis [17]) [µg/mL] | further results
1 | N/N=C/c1cc(N2CCOCC2)c2cccc(C(F)(F)F)c2n1 | – | – | – | – | – | – | – | – | – | – | – | – | – | – | MIC (Acinetobacter baumannii): 2 µg/mL (≈ 6.17 µM)
2 | CN(C)c1ccc(/C=N/CCNc2ccnc3cc(Cl)ccc23)cc1 | 8 | 8 | 7 | 9 | 10 | 7 | – | – | – | – | – | – | – | – | –
3 | COc1ccc(/C=N/CCNc2ccnc3cc(Cl)ccc23)cc1OC | 7 | 7 | 8 | 8 | 8 | 7 | – | – | – | – | – | – | – | – | –
4 | Oc1cccc(/C=N/CCNc2ccnc3cc(Cl)ccc23)c1 | 10 | 9 | 10 | 10 | 13 | 8 | 512 (≈ 1570 µM) | > 512 | 256 (≈ 786 µM) | 256 (≈ 786 µM) | 256 (≈ 786 µM) | > 512 | 512 (≈ 1570 µM) | > 512 | Ratio (Escherichia coli [7]): 1; MBC (Salmonella typhi [8]): 256 µg/mL (≈ 786 µM); Ratio (Salmonella typhi [12]): 1; MBC (Enterococcus faecalis [18]): 512 µg/mL (≈ 1570 µM); Ratio (Enterococcus faecalis [19]): 1
5 | CC(C)c1ccc(/C=N/CCNc2ccnc3cc(Cl)ccc23)cc1 | 7 | 8 | 10 | 9 | 10 | 12 | 512 (≈ 1460 µM) | > 512 | 256 (≈ 728 µM) | 256 (≈ 728 µM) | 256 (≈ 728 µM) | 256 (≈ 728 µM) | > 512 | > 512 | Ratio (Escherichia coli [7]): 1; MBC (Salmonella typhi [8]): 256 µg/mL (≈ 728 µM); Ratio (Salmonella typhi [12]): 1; MBC (Pseudomonas aeruginosa [20]): > 512 µg/mL
6 | Cc1cccc2c1NC(=O)/C2=N\CCNc1ccnc2cc(Cl)ccc12 | – | 12 | – | 11 | 11 | 12 | 256 (≈ 702 µM) | 256 (≈ 702 µM) | > 512 | > 512 | 256 (≈ 702 µM) | 256 (≈ 702 µM) | > 512 | 256 (≈ 702 µM) | MBC (Bacillus subtilis [21]): > 512 µg/mL; Ratio (Staphylococcus aureus [22]): 1; MBC (Pseudomonas aeruginosa [20]): > 512 µg/mL
7 | CC(NC1=NC(c2cc3cc(OCc4cccc(Cl)c4)ccc3nc2O)N=CN1)c1ccccc1 (stereo unspecified) | – | – | – | – | – | – | – | – | – | – | – | – | – | – | MIC (Staphylococcus aureus [23]): 2 µg/mL (≈ 4.12 µM)

— ChEMBL document CHEMBL6078713, “Synthesis and mechanistic studies of 4-aminoquinoline-Isatin molecular hybrids and Schiff's bases as promising antimicrobial agents” (Eur J Med Chem, 2025)
